This is an account of results in patent publication US20240239780A1, “MODIFIED FERROPORTIN INHIBITORS” (Vifor (International) AG, priority 2021, published 2024).

Molecules are shown by their SMILES.

The target in this assay is T1, ferroportin (Fpn) (Mus musculus, UniProt Q9JHI9).
T1 construct: endogenous in cells; host or cells: J774 mouse macrophage cell line, induced with Fe(III)NTA
T1 sequence (Q9JHI9 1-570): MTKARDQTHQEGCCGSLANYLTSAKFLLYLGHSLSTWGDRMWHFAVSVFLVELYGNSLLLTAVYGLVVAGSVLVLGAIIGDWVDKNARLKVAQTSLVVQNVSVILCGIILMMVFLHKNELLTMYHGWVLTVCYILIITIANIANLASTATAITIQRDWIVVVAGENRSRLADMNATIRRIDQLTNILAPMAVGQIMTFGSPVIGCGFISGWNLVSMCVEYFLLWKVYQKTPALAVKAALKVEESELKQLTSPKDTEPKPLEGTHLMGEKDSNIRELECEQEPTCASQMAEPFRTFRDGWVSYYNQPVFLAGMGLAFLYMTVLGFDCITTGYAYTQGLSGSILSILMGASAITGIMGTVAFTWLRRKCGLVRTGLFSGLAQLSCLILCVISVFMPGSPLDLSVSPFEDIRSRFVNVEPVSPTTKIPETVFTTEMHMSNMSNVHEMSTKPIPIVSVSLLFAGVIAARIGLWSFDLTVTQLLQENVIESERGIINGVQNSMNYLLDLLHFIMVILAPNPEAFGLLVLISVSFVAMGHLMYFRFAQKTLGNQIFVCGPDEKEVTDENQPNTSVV
The assay is described as follows: Hepcidin Internalization Assay (J774). The class given is cell-based. As to conditions: J774 cells, TMR-hepcidin 25 nM, 2 hours; read-out: IC 50, average (AVE) of multiple measurements, hepcidin internalization assay. The source says:
This cellular assay allows quantification of the binding of hepcidin to ferroportin (Fpn) through microscopic detection of internalization of a fluorescently labeled hepcidin into J774 cells. […] Binding of hepcidin to Fpn triggers internalization and degradation of both hepcidin and Fpn. […] Therefore, microscopic detection of cell-associated TMR fluorescence is a measure of hepcidin binding to Fpn and internalization of hepcidin and Fpn. If TMR-hepcidin is prevented from binding to Fpn, cellular TMR fluorescence remains low (Dürrenberger et al, 2013). The effect of small molecular weight Fpn inhibitor compounds in this assay was evaluated in vitro as described below. […] Cat. 655090) and grown at 37° C. with 5% CO2. After overnight incubation, cells were washed 3 times with pre-warmed DMEM w/o phenol red, 30 μl/well of DMEM w/o phenol red was added after the final wash and 10 μl/well of dilution series of test compounds were added in triplicates. […] Cells were incubated in a total volume of 50 μl at 37° C. with 5% CO2 for 2 hours, then Hoechst 33342 dye was added to a final concentration of 0.5 μg/ml to stain nuclei and further incubated for 10 min. at 37° C. with 5% CO2. […] After removal of the paraformaldehyde solution, cells were washed 3 times with PBS leaving 100 μl per well and the plates were sealed with foil plate seal. […] The acquired image data was analysed with the […] analysis software. […] IC50 values were calculated with the Sum(Mean) raw data using “log(inhibitor) vs. response” curve fitting of Prism 5 software (GraphPad Software Inc., version 5.02). For each data set the fit of the “log(inhibitor) vs. response (three parameters)” model was compared to the fit of the “log(inhibitor) vs. response-Variable slope (four parameters)” model and the IC50 data of the preferred model was used.
On to `Cc1cccnc1CNC(=O)c1coc(CCNCCc2nc3c(ccc4ccccc43)[nH]2)n1` [compound 13], for which the IC50 turned out to be 55 nM.
The figure for `O=C(NCc1ncccc1F)c1coc(CCNCCc2nc3cc(-c4ccc5c(c4)OCCO5)ccc3[nH]2)n1` [compound 88] is 12 nM; for `COc1cccc(-c2ccc3[nH]c(CCNCCc4nc(C(=O)NCc5ncccc5F)co4)nc3c2)c1` [compound 63] it is 8 nM.
Take `O=C(NCc1ncccc1F)c1coc(CCNCCc2nc3ccc(CN4CCOCC4)cc3[nH]2)n1` [compound 35]: the IC50 came to 57 nM.
For the compound `O=C(NCc1ncccc1F)c1coc(CCNCCc2nc3cc(-c4cccc(-c5ncco5)c4)ccc3[nH]2)n1` [compound 87], the IC50 is 14 nM.
On to `O=C(NCc1ncccc1F)c1coc(CCNCCc2nc3cc(-n4cccc4)ccc3[nH]2)n1` [compound 32], for which the IC50 is 27 nM.
`COc1cccnc1CNC(=O)c1coc(CCNCCc2nc3cc4c(cc3[nH]2)OCCO4)n1` [compound 48]: the IC50 stood at 26 nM.
The figure for `O=C(NCc1ncccc1F)c1coc(CCNCc2nc3cnc4ccccc4c3[nH]2)n1` [compound 2, 2-(2-(((3H-imidazo[4,5-c]quinolin-2-yl)methyl)amino)ethyl)-N-((3-fluoropyridin-2-yl)methyl)oxazole-4-carboxamide] is 350 nM; for `O=C(NCc1ncccc1C(F)(F)F)c1coc(CCNCCc2nc3cc(-n4cccc4)ccc3[nH]2)n1` [compound 58] it is 171 nM.
Consider `O=C(NCc1ncccc1F)c1coc(CCNCCc2nc3cc(-c4cccc(F)c4)ccc3[nH]2)n1` [compound 61], for which the IC50 worked out at 11 nM.
Next, `O=C(NCc1ncccc1Cl)c1coc(CCNCCc2nc3cc(-n4cccc4)ccc3[nH]2)n1` [compound 59]: 28 nM; `Cc1cccnc1CNC(=O)c1coc(CCNCCc2nc3cc(-c4ccccc4)ccc3[nH]2)n1` [compound 52]: 26 nM; `O=C(NCc1ncccc1C(F)(F)F)c1coc(CCNCCc2nc3cc4c(cc3[nH]2)OCCO4)n1` [compound 56]: 49 nM.
For the compound `Cc1ccc(-c2ccc3[nH]c(CCNCCc4nc(C(=O)NCc5ncccc5F)co4)nc3c2)cc1` [compound 60], the IC50 worked out at 13 nM.
Next, `O=C(NCc1ncccc1F)c1coc(CCNCCc2nc3c(-c4ccncc4)cccc3[nH]2)n1` [compound 20]: 189 nM; `O=C(NCc1ncccc1F)c1coc(CCNCCc2nc3cc(CCc4ccccc4)ccc3[nH]2)n1` [compound 75]: 2 nM.
The figure for `O=C(NCc1ncccc1F)c1coc(CCNCCc2nc3cc(-c4ccccc4)ccc3[nH]2)n1` [compound 19] is 6 nM; for `O=C(NCc1ncccc1F)c1coc(CCNCCc2nc3cc(-c4ccccc4-c4ncco4)ccc3[nH]2)n1` [compound 86] it is 9 nM; for `COc1ccccc1-c1ccc2[nH]c(CCNCCc3nc(C(=O)NCc4ncccc4C)co3)nc2c1` [compound 49] it is 18 nM.
Next, `O=C(NCc1ncccc1F)c1coc(CCNCCc2nc3cc(-c4ccc(Cl)cc4)ccc3[nH]2)n1` [compound 57]: 27 nM; `O=C(NCc1ncccc1F)c1coc(CCNCCc2nc3cc(-c4ccccc4F)ccc3[nH]2)n1` [compound 46]: 7 nM.
Regarding `O=C(NCc1ncccc1F)c1coc(CCNCCc2nc3cc(-c4cccc5c4CCCC5)ccc3[nH]2)n1` [compound 82], the IC50 worked out at 15 nM.
Next, `O=C(NCc1ncccc1F)c1coc(CCNCCc2nc3c4c(ccc3[nH]2)CCCC4)n1` [compound 39]: 12 nM; `COc1cccnc1CNC(=O)c1coc(CCNCCc2nc3c4c(ccc3[nH]2)CCCC4)n1` [compound 50]: 19 nM.
Next, `COc1ccccc1-c1ccc2[nH]c(CCNCCc3nc(C(=O)NCc4ncccc4OC)co3)nc2c1` [compound 51]: 17 nM.
Next, `O=C(NCc1ncccc1F)c1coc(CCNCCc2nc3cc4ccccc4cc3[nH]2)n1` [compound 43]: 9 nM; `O=C(NCc1ncccc1F)c1coc(CCNCCc2nc3cccc(C#Cc4cccnc4)c3[nH]2)n1` [compound 80]: 83 nM.
Turning to `O=C(NCc1ncccc1F)c1coc(CCNCCc2nc3cc(-c4cccc5c4OCCO5)ccc3[nH]2)n1` [compound 81], the IC50 is 7 nM.
The figure for `O=C(NCc1ncccc1Cl)c1coc(CCNCCc2nc3c(ccc4ccccc43)[nH]2)n1` [compound 14] is 33 nM; for `COc1ccccc1-c1ccc2[nH]c(CCNCCc3nc(C(=O)NCc4ncccc4F)co3)nc2c1` [compound 45] it is 6 nM.
Turning to `O=C(NCc1ncccc1F)c1coc(CCNCCc2nc3cc(-c4ccc(-c5ncco5)cc4)ccc3[nH]2)n1` [compound 90], the IC50 turned out to be 5.8 nM.
The figure for `COc1cccnc1CNC(=O)c1coc(CCNCCc2nc3cc(-c4ccccc4)ccc3[nH]2)n1` [compound 53] is 16 nM; for `COCCOc1ccccc1-c1ccc2[nH]c(CCNCCc3nc(C(=O)NCc4ncccc4F)co3)nc2c1` [compound 68] it is 7 nM; for `O=C(NCc1ncccc1F)c1coc(CCNCCc2nc3cccc(C#Cc4ccccc4)c3[nH]2)n1` [compound 37] it is 34 nM.
The figure for `O=C(NCc1ncccc1F)c1coc(CCNCCc2nc3c(-c4cccnc4)cccc3[nH]2)n1` [compound 18] is 53 nM; for `O=C(NCc1nc2ccccc2c2ccccc12)c1coc(CCNCCc2nc3c(ccc4ccccc43)[nH]2)n1` [compound 8] it is 6700 nM.
As to `O=C(NCc1ncccc1F)c1coc(CCNCCc2nc3c(ccc4ccccc43)[nH]2)n1` [compound 5, 2-(2-((2-(3H-naphtho[1,2-d]imidazol-2-yl)ethyl)amino)ethyl)-N-((3-fluoropyridin-2-yl)methyl)oxazole-4-carboxamide], the IC50 turned out to be 13 nM.
Take `O=C(NCc1ncccc1F)c1coc(CCNCCc2nc3cnc4ccccc4c3[nH]2)n1` [compound 3, 2-(2-((2-(3H-imidazo[4,5-c]quinolin-2-yl)ethyl)amino)ethyl)-N-((3-fluoropyridin-2-yl)methyl)oxazole-4-carboxamide]: the IC50 was 593 nM.
For the compound `O=C(NCc1ncccc1Cl)c1coc(CCNCCc2nc3cc4c(cc3[nH]2)OCCO4)n1` [compound 55], the IC50 is 2 nM.
As to `Cc1cccc(-c2ccc3[nH]c(CCNCCc4nc(C(=O)NCc5ncccc5F)co4)nc3c2)c1C` [compound 84], the IC50 was found to be 12 nM.
The figure for `O=C(NCc1ccccn1)c1coc(CCNCCc2nc3cc(-c4cccc(F)c4)ccc3[nH]2)n1` [compound 69] is 61 nM; for `COc1cccnc1CNC(=O)c1coc(CCNCCc2nc3cc(-n4cccc4)ccc3[nH]2)n1` [compound 54] it is 37 nM; for `Cc1cccnc1CNC(=O)c1coc(CCNCCc2nc3cc4c(cc3[nH]2)OCCO4)n1` [compound 47] it is 11 nM.
Next, `O=C(NCc1ncccc1F)c1coc(CCNCCc2nc3cc(C#Cc4cccnc4)ccc3[nH]2)n1` [compound 73]: 2 nM; `COc1cccnc1CNC(=O)c1coc(CCNCCc2nc3cc(-c4ccc(C)cc4)ccc3[nH]2)n1` [compound 74]: 7 nM; `COc1ccc(-c2ccc3[nH]c(CCNCCc4nc(C(=O)NCc5ncccc5F)co4)nc3c2)cc1` [compound 64]: 10 nM.
The figure for `COc1cccnc1CNC(=O)c1coc(CCNCCc2nc3c(ccc4ccccc43)[nH]2)n1` [compound 15] is 33 nM; for `COc1cccc(C#Cc2cccc3nc(CCNCCc4nc(C(=O)NCc5ncccc5F)co4)[nH]c23)c1` [compound 78] it is 41 nM; for `COc1cccc(-c2ccc3[nH]c(CCNCCc4nc(C(=O)NCc5ncccc5F)co4)nc3c2)c1OC` [compound 83] it is 6 nM.
On to `O=C(NCc1ncccc1F)c1coc(CCNCCc2nc3cc(-c4ccc5c(c4)CCCC5)ccc3[nH]2)n1` [compound 89], for which the IC50 stood at 10 nM.
Next, `O=C(NCc1ncccc1F)c1coc(CCNCCc2nc3cccc(C#Cc4cccc(-c5ncco5)c4)c3[nH]2)n1` [compound 79]: 84 nM.
